What was measured:
[1] = system: p-glycoprotein (ABCB1 protein); details: cited from earlier work; for uptake / penetration into the brain of mice dependent on ABCB1 protein: mice with abcb1ab knockout mutation, cited literature; for substrate of p-glycoprotein: from cited literature
[2] = Plasma concentration of antidepressant drugs in depressed patients according to rs2235015 genotype; assay type: in vivo, human; details: weeks 4-6 of treatment; rs2235015 GG homozygotes; SEM=51.6
Procedure: All patients were treated with antidepressant drugs within a few days of admission. The type antidepressant medication was not influence by the participation in the study, but chosen freely by the responsible psychiatrist. For all patients plasma concentration of antidepressant medication was monitored to assure clinically efficient drug levels.
Plasma citalopram, mirtazapine, and paroxetine were extracted with a liquid-liquid extraction procedure and than measured after HPLC with UV absorption and fluorescence.
We used a reversed phase Luna 5μ C18(2) 250×4.6 mm column (Phenomenex, Torrance, USA), 60° C., mobile phase flow 1 ml/min. […] The extraction recovery was >90%, and the intra and inter day variation coefficient was <10%.
To detect any genotype dependent differences in antidepressant dose or plasma level, we used a one-way ANOVA with the genotype of rs2235015 as factor.

[3] = system: p-glycoprotein (abcb1a and abcb1b); experiment: Drug concentrations in cerebrum and plasma of abcb1ab (-/-) mice compared to wild-type controls after 11 day subcutaneous administration; details: for differences in plasma levels between abcb1ab (-/-) mutant and wildtype littermates: 11 day continuous sub-cutaneous administration; for fold higher concentration in the brain of abcb1ab (-/-) mutant compared to wildtype animals (cerebrum/plasma ratio): 11 day continuous sub-cutaneous administration via osmotic pumps, male mice; for intracerebral concentration regulated by p-glycoprotein: administration for 11 days, mice lacking abcb1a and abcb1b
Procedure: Venlafaxine and o-desmethylvenlafaxine (d-venlafaxine) was obtained from Wyeth-Pharma GmbH (Münster, Germany). […] Protriptyline was purchased from RBI (Massachusetts, USA). All other chemicals were obtained in the purest grade available from Merck (Darmstadt, Germany).
Male abcb1ab(−/−) mice and FVB/N wildtype mice were housed individually and maintained on a 12:12 h light/dark cycle (lights on at 07:00), with food and water ad libitum. Abcb1ab double knockout mice, originally created by A. Schinkel by sequential gene targeting in 129/Ola E14 embryonic stem cells^28 and backcrossed seven times (N7) to FVB/N from the C57BL/6×129 chimera, and FVB/N wildtype mice were received from Taconic (Germantown, USA; FVB/Tac-[KO]Pgy2 N7). A homozygous colony is maintained at the Max-Planck Institute of Psychiatry on the N7 FVB/N background through intercrossing of homozygous mice.
Experimental and extraction procedures were performed as described before^12,26. […] After 11 days, the mice were anesthetized and sacrificed. The dissected organs were homogenized and a liquid-liquid extraction procedure has been carried out with n-hexan/isoamylalcohol (Table 3) in the first step and phosphoric acid in the second.
HPLC measurements were performed as described before^12,26. A Beckman gradient pump, autoinjector, UV detector and a Merck fluorescence detector, were used for the high-performance liquid chromatography analysis. Separations were made on a reversed phase Luna 5μ C18(2) 250×4.6 mm column (Phenomenex, Torrance, USA), 60° C., mobile phase flow 1 ml/min. A mobile phase gradient with acetonitrile was used for the chromatography analysis (Table 3). The substances were determined by UV absorption and fluorescence at the described wavelength (Table 3).
Statistical analysis was carried out the statistic software SPSS 10.0 for windows (Chicago, Ill.). Significance was tested by one-factorial multivariate analyses of variance (MANOVAs). […] As a nominal level of significance α=0.05 was accepted and corrected (reduced according to the Bonferroni procedure) for all a posteriori tests (univariate F-tests) in order to keep the type I error less than or equal to 0.05.

| Structure (SMILES) | uptake / penetration into the brain of mice dependent on ABCB1 protein [1] | substrate of p-glycoprotein [1] | also measured |
| --- | --- | --- | --- |
| CN(C)CCC=C1c2ccccc2COc2ccccc21 [doxepin] | enhancement of penetration | – | – |
| Fc1ccc([C@@H]2CCNC[C@H]2COc2ccc3c(c2)OCO3)cc1 [paroxetine] | enhancement of penetration | identified as a substrate of p-glycoprotein | – |
| CN(C)CCCC1(c2ccc(F)cc2)OCc2cc(C#N)ccc21 (stereo not shown) [citalopram] | involved in the uptake | – | – |
| CC(CN(C)C)CN1c2ccccc2CCc2ccccc21 (stereo not shown) [trimipramine] | involved in the uptake | – | – |
| COc1ccc(C(CN(C)C)C2(O)CCCCC2)cc1 (stereo not shown) [venlafaxine] | enhancement of penetration | – | mean plasma level of administered antidepressant [2]: 0.3565 µg/mL; differences in plasma levels between abcb1ab (-/-) mutant and wildtype littermates [3]: no differences; fold higher concentration in the brain of abcb1ab (-/-) mutant compared to wildtype animals (cerebrum/plasma ratio) [3]: 1.7 fold; intracerebral concentration regulated by p-glycoprotein [3]: regulated by p-glycoprotein |
| CNCCC(Oc1ccc(C(F)(F)F)cc1)c1ccccc1 (stereo not shown) [fluoxetine] | – | not substrate of p-glycoprotein | – |
| CNCCC=C1c2ccccc2CCc2ccccc21 [nortriptyline] | – | substrate of p-glycoprotein | – |
| CN(C)CC(c1ccc(O)cc1)C1(O)CCCCC1 (stereo not drawn) [d-venlafaxine, o-desmethylvenlafaxine] | – | – | differences in plasma levels between abcb1ab (-/-) mutant and wildtype littermates [3]: no differences; fold higher concentration in the brain of abcb1ab (-/-) mutant compared to wildtype animals (cerebrum/plasma ratio) [3]: 4.1 fold; intracerebral concentration regulated by p-glycoprotein [3]: regulated by p-glycoprotein |
| CN1CCN2c3ncccc3Cc3ccccc3C2C1 (stereo not shown) [mirtazapine] | – | – | differences in cerebrum/plasma ratios between abcb1ab (-/-) mutant and wildtype ([3]; mouse, in vivo): no significant differences |
